Assay results published in article PMC5011490, “Effect of Tris, MOPS, and phosphate buffers on the hydrolysis of polyethylene terephthalate films by polyester hydrolases” (FEBS Open Bio, 2016).

Target: T1, TfCut2 (Thermobifida fusca, UniProt Q6A0I4)
T1 construct: gene cut2; gene without signal peptide from T. fusca KW3 genomic DNA, pET-20b(+) with pelB leader and His6 tag, E. coli BL21(DE3), purified
Test: PET film hydrolysis, released products by RP-HPLC; Lineweaver-Burk slope replot
Type: biochemical
Details: amorphous PET film substrate, 0.2 M sodium phosphate pH 8.0, 60 °C, 1 h; MOPS 0.05-0.075 M; competitive
Description: PET film hydrolysis, released products by RP-HPLC; Lineweaver-Burk slope replot on TfCut2

T1 sequence (Q6A0I4 41-301): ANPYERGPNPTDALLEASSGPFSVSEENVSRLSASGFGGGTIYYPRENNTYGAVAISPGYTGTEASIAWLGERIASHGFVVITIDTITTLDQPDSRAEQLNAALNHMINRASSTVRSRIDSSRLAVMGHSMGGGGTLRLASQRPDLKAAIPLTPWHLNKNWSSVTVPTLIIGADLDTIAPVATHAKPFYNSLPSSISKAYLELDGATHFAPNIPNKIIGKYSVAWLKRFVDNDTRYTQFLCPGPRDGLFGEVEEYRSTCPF

Structure (SMILES): O=S(=O)(O)CCCN1CCOCC1 [MOPS, 3‐(N‐morpholino)propanesulfonic acid]
- Ki: 80 mM
